Assay [1] has as its system methicillin resistant Staphylococcus aureus (MRSA) BAA-41. As to the kind of experiment: Minimum inhibitory concentration (MIC), antimicrobial activity. As to conditions: Pathogen MRSA BAA-41. The assay is classed as cell-based. The procedure:
(§1) The antimicrobial activity of CSA-255 was determined in comparison to CSA-44, a CSA compound known to have very high antimicrobial activity compared to other CSAs. The microbes used in the comparative test was were methicillin resistant Staphylococcus aureus (MRSA) BAA-41 and Pseudomonas aeruginosa (PA01 47085).

In assay [2] the test system is Pseudomonas aeruginosa (PA01 47085). The description is as above. The assay is classed as cell-based. As to conditions: Pathogen PA01 47085. As to the method:
as §1

The structures appear in SMILES notation. Values after ≈ are worked out from the molar mass of the structure shown. Read-outs that look alike come from different tables or passages of the source.

A word on the MIC: it is the smallest concentration in the dilution series that meets the test's criterion for growth inhibition.

With `CCCCCCCCNC(=O)CC[C@@H](C)[C@H]1CC[C@H]2[C@@H]3[C@H](OC(=O)NCCN)C[C@@H]4C[C@H](OC(=O)NCCN)CC[C@]4(C)[C@H]3C[C@H](OC(=O)NCCN)[C@]12C` [CSA-255], the MIC in assay [1] (Staphylococcus aureus, read-out: MIC) was 4 µg/mL (≈ 5.14 µM); in assay [2] (Pseudomonas aeruginosa, read-out: MIC), 2 µg/mL (≈ 2.57 µM).

`CCCCCCCCOC(=O)CC[C@@H](C)[C@H]1CC[C@H]2[C@@H]3[C@H](OC(=O)CCN)C[C@@H]4C[C@H](OC(=O)CCN)CC[C@]4(C)[C@H]3C[C@H](OC(=O)CCN)[C@]12C` [CSA-44]: the MIC in assay [1] and in assay [2] was 2 µg/mL (≈ 2.72 µM) each time.
